Assay results reported in patent US20240408194A1, “DNA ORIGAMI SUBUNIT VACCINE FOR PREVENTION OF SARS-CoV-2 VARIANT INFECTION” (priority 2021, published 2024).
“Also recorded” adds a separate entry of the source.

Tested on: spike and variants
Format: binding, SARS-COV-2

LCB1
binding affinity for spike and variants: up to picomolar; also recorded: high affinity
